Patent publication US20070265208A1, “Association of calpain inhibitors and reactive oxygen species trapping agents” (priority 2000, published 2007)

Assays:
rat glial cells C6 = test: Protection from necrosis induced by maitotoxin, C6 (wst-1 viability); assay type: cell-based; details: single product at 50 μM, n = 3 for Example 2, else n = 1
Experimental: Human neuroblastomas SHSY5Y and rat glial cells C6 are seeded at 25 000 cells per well in 96-well plates in DMEM 10% FBS for 24 hours. The L6 rat myoblasts are seeded at 1000 cells per well in DMEM 10% FBS on 96-well microplates coated beforehand with gelatin 0.5% PBS. After culture for 3 days the medium is removed and replaced with a differentiation medium (DMEM+10 μg/ml of insulin+100 μg/ml of transferrin). 50 μl of product A plus 50 μl of solvent or 50 μl of product B are placed in the wells. After incubation for 1 hour at 37° C. under an atmosphere of 5% CO2, 10 μl of maitotoxin is added in order to obtain a final concentration of 0.1 nM to 1 nM (according to the cell type). After incubation for 3 hours at 37° C. under an atmosphere of 5% CO2, the cell viability is determined by adding 10 μl of tetrazolium salts (wst-1, Roche, ref: 1644807). The tetrazolium salts are cleaved into formazan molecules by mitochondrial dehydrogenases. The quantity of formazan formed is directly correlated to the number of metabolically active cells in the culture. Measurement of the absorbance of the formazan is carried out using a multiwell photometer at a wavelength of 420 nm against a reference wavelength of 620 nm.
The theoretical effect was obtained by multiplying the percentage of dead cells in the presence of product A by the percentage of dead cells in the presence of product B (Table 3). The percentage protection against cell death induced by MTX being the percentage of cells kept alive in the presence of the product or products.
In the light of the previous results, the combination of Example 1 with product A and product B at a rate of 100 μM of each of the products is carried out on human neuroblastomas (SHSY5Y; (Table 5A) and on glial cells with 25 μM of product A and 50 μM of product B (C6; Table 5B) on a larger number of cases.

[1] = test system: calpain activity in rat glial cells (C6); test: In situ calpain activity in rat glial cells C6 stimulated by maitotoxin; assay type: cell-based; details: read-out: Inhibition human calpain I, in situ (C6) [IC50 (nM)]; n = 3; maitotoxin 1 nM; 1 h 30 min
Experimental: Human neuroblastomas SHSY5Y and rat glial cells C6 are seeded at a rate of 50,000 and 25,000 cells respectively per well on 96-well plates in DMEM 10% FBS. The next day, the cells which have adhered are washed 3 times in DMEM medium without serum and 40 mM Hepes. 100 microlitres of product B is placed in the wells. After incubation for 1 hour at 37° C. under an atmosphere of 5% CO2, 10 μl containing the fluorescent substrate of calpain (Suc-Leu-Tyr-AMC) and maitotoxin (Sigma, ref: M-9159), in order to obtain a final concentration in the well of 100 μM and of 1 nM respectively are added.
In order to determine the total activity of the cell enzyme, wells containing no product are added to the plate (100 μL DMSO 100th plus 10 μl of MTX and substrate). The background noise is determined by adding control wells with no MTX. Each concentration of the products (0.3 μM to 200 μM for the SHSY5Y's and 0.01 μM to 100 μM for the C6's) is tested in triplicate. The plates are shaken, the fluorescence is read at 380/460 nm using the Victor at T zero. Incubation takes place for four hours for the SHSY5Y and 1 hour 30 minutes for the C6 cells at 30° C. in darkness.

**Q.** With `CC(C)C[C@@H](C=O)NC(=O)[C@H](CC(C)C)NC(=O)OCc1ccccc1` [EXAMPLE 1 B, benzyl (1S)-1-({[(1S)-1-formyl-3-methylbutyl]amino}carbonyl)-3-methylbutylcarbamate] as the molecule, how does the “Protection from necrosis induced by MTX on C6” value (“Protection” for short) (rat glial cells C6) read?
**A.** Its value is 9.63%.

**Q.** And the “Protection” value (rat glial cells C6; listed as EXAMPLE 6 B)?
**A.** Its value is 4.91%.

**Q.** What about the “Protection” value (rat glial cells C6; listed as Z-Leu-Leu-H) of the same molecule?
**A.** Its value is “not active”.

**Q.** What about the IC50 [1] of the same molecule?
**A.** Its IC50 is 1750 ± 340 nM.
